In patent publication US7105492B2, “Camptothecin derivatives having antitumor activity” (priority 1999, dated 2006):

Tests used:
[1] = system: MKN-28 human gastric carcinoma; test: ST 1737 per os in athymic nude mice bearing s.c. MKN-28 human gastric carcinoma; assay type: in vivo; details: q4d × 4; for TVI % (tumor volume inhibition % in treated over control tumors): at 11–12 day after last treatment
[2] = Water solubility (remark in Table 4); assay type: physicochemical
[3] = system: NCI H460 lung non-small cell carcinoma; test: Antiproliferative activity test (cytotoxic activity) on NCI H460 cells; assay type: cell-based, human; details: H-460
Experimental: Cytotoxic activity of the compounds of the present invention was assayed in cell systems of human tumour cells, using the antiproliferative activity test as a method of evaluation of the cytotoxic potential.
The cell line used is a lung non-small cell carcinoma that belongs to non-small cells hystotype named NCI H460.

[4] = target: T1, topoisomerase i (Homo sapiens, UniProt P11387); test: Persistence of topoisomerase I-mediated DNA cleavage after addition of 0.6 M NaCl; assay type: biochemical; details: for Reversibility / persistence of the DNA cleavages (in words): after sodium chloride (0.6 M), about 10 minutes; for PERSISTENCE (%) of DNA cleavage on selected sites: drug 10 μm, 20 minutes incubation, then sodium chloride (0.6 M), examined after about 10 minutes
T1 sequence (P11387 1-765): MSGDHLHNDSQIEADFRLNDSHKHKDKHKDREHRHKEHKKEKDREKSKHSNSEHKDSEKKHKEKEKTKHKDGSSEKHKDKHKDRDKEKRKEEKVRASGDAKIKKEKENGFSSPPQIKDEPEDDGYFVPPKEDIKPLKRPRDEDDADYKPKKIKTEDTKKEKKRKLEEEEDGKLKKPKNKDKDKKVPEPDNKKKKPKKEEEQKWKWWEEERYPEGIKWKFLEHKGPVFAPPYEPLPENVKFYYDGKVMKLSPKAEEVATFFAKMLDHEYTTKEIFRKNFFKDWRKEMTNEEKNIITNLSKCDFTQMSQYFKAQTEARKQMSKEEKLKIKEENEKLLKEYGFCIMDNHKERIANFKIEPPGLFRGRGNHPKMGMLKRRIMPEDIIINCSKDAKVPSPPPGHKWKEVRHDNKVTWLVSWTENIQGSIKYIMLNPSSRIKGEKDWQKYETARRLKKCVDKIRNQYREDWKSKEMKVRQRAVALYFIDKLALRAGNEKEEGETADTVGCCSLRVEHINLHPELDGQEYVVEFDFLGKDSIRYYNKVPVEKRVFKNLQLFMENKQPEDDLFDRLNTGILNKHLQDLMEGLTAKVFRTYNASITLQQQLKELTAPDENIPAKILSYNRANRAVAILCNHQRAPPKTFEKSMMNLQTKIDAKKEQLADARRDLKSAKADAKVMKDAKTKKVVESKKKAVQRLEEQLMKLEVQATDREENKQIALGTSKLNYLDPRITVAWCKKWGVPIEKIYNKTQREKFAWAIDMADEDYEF
Experimental: An important drawback of conventional camptothecins is the reversibility of the their bond in the ternary complex (drug-DNA-enzyme).
After 20 minutes of incubation of the drug in the reaction mixture containing labelled DNA and the purified enzyme, sodium chloride (0.6 M) was added with the scope of assisting the dissociation of the ternary complex.

[5] = system: GBM/7 glioblastoma; test: Antitumor activity on tumor models: GBM/7; assay type: in vivo, mice
From the text: (§1) This broad spectrum of anticancer activity was confirmed in mice transplanted with human tumor xenografts, including NSCLC (H460, A549), prostate ca. (JCA-1), glioblastoma (GBM/7), gastric ca. (MKN28), osteosarcoma (U2OS), ovarian ca. (A2780/Dx, A2780/DDP) and colon (HT29, CoBA) carcinomas as well as in murine lung cancer (M109) and leukaemia model (L1210).

[6] = system: U87 glioblastoma; test: Antitumor activity on tumor models: U87; assay type: in vivo, mice
[7] = system: IGROV-1 ovarian ca; test: Antitumor activity on tumor models: IGROV-1; assay type: in vivo, mice
[8] = system: A2780 ovarian ca; test: Antitumor activity on tumor models: A2780; assay type: in vivo, mice; details: A2780, 2 mg/kg
From the text: as §1

[9] = system: lung carcinoma NCI H460; test: Antitumoral activity in nude mice implanted s.c. with NCI H460 tumour fragments (Table 1); details: for Efficacy (TVI %): evaluated 5–10 days after the last treatment
Experimental: For the in vivo studies, the solubilization was carried out in 10% DMSO in bidistilled water, being impossible the solubilization in saline, and the administration for the oral route was carried out at a volume of 10 ml/kg.
Atimic nu/nu Swiss mice (Charles River, Calco, Italia), ageing 10–12 weeks were used. The animals were maintained in laminar flow rooms, according to the guidelines of the United Kingdom Co-ordination Committee Cancer Research. Experimental protocols were approved by the Ethical Committee for animal experimentation of Istituto Nazionale per lo Studio e Cura dei Tumori.
Tumour fragments of about 2×2×2 mm coming from mice to which were inoculated s.c. 10^6 cells NCI H460/topo, were implanted s.c. bilaterally in groups of 5 mice each.
Twice a week, using a Vernier caliper, the width, minimum diameter (l), length and maximum diameter (L) of the tumors were measured, in mm. The tumour volume (mm^3) was calculated according to the formula I^2×L/2. Efficacy of the molecule was evaluated as TVI percent of the treated group versus the control group according to the formula TVI%=100−(T/C×100), wherein T is the mean value of the tumour volume of the treated group and C of control one.

[10] = system: A2780/Dx ovarian ca; test: Antitumor activity on tumor models: A2780/Dx; assay type: in vivo, mice; details: for TVI % / no evidence of tumor at the end of the treatment lasting for about 10 days from the last administration: A2780/Dx
From the text: as §1
The high cytotoxic potency of the compounds of the present invention, herein represented in an exemplary way with one of the preferrred compounds, CPT 184, is also reflected by the potent antitumor activity. […] Moreover, the compounds of the present invention, in particular the CPT 184, were able to induce 100% CR in the A2780/DX tumor characterized by a MDR-phenotype.

[11] = system: A2780/DDP ovarian ca; test: Antitumor activity on tumor models: A2780/DDP; assay type: in vivo, mice
From the text: as §1

[12] = system: JCA-1 prostate ca; test: Antitumor activity on tumor models: JCA-1; assay type: in vivo, mice
From the text: as §1

[13] = system: H460 = NSCLC; test: Antitumor activity on tumor models: H460; assay type: in vivo, mice
From the text: as §1

[14] = system: HT29 colon ca; test: Antitumor activity on tumor models: HT29; assay type: in vivo, mice
From the text: as §1

[15] = system: DU145 prostate ca; test: Antitumor activity on tumor models: DU145; assay type: in vivo, mice; details: DU145, 2 mg/kg
[16] = system: L1210 = murine leukemia; test: Antitumor activity on tumor models: L1210 leukemia, increase in life span; assay type: in vivo, mice
From the text: as §1

[17] = system: CoBA colon ca; test: Antitumor activity on tumor models: CoBA; assay type: in vivo, mice
From the text: as §1

With `CC[C@@]1(O)C(=O)OCc2c1cc1n(c2=O)Cc2c-1nc1ccccc1c2C=Nc1ccccc1SSc1ccccc1N` [ST 1737, 7–2-(2-aminophenyldithio)phenyliminomethylcamptothecin] the “Tox (Dead/treated mice)” value ([1]; 4 mg/kg per os) was 0/4, the “TVI % (tumor volume inhibition % in treated over control tumors)” value ([1]; 4 mg/kg per os) was 69% and the “Tox (Dead/treated mice)” value ([1]; 7 mg/kg per os) was 0/4. The “TVI % (tumor volume inhibition % in treated over control tumors)” value ([1]; 7 mg/kg per os) was 56%, the “BWL % (body weight loss % induced by drug treatment)” value ([1]; 12 mg/kg per os) was 4% and the “Tox (Dead/treated mice)” value ([1]; 12 mg/kg per os) was 0/4. For the same molecule, the “TVI % (tumor volume inhibition % in treated over control tumors)” value ([1]; 12 mg/kg per os) was 68%, the “water solubility (in words)” value [2] was “(water soluble)” and the IC50 [3] was 0.017 µM.

In the case of `CC[C@@]1(O)C(=O)OCc2c1cc1n(c2=O)Cc2c-1nc1ccccc1c2C=NOC(C)(C)C` [CPT 184, 7-T-Butoxyiminomethylcamptothecin], the “Reversibility / persistence of the DNA cleavages (in words)” value [4] is reported as “marked persistence”, the “PERSISTENCE (%) of DNA cleavage on selected sites” value [4] is reported as 72% and the TVI % ([5]; GBM/7, 2 mg/kg) is reported as 97%. The “no evidence of tumor at the end of the treatment lasting for about 10 days from the last administration” value (“no evidence of tumor” for short) ([5]; GBM/7, 2 mg/kg) was “(3/10*)”, the TVI % ([5]; GBM/7, 3 mg/kg) was 98% and the “no evidence of tumor” value ([5]; GBM/7, 3 mg/kg) was “(2/8*)”. The TVI % ([6]; U87, 2 mg/kg) was 80%, the TVI % ([6]; U87, 3 mg/kg) was 87% and the TVI % ([7]; IGROV-1, 2 mg/kg) was 93%. The TVI % ([7]; IGROV-1, 3 mg/kg) was 96%, the TVI % [8] was 100% and the “no evidence of tumor” value [8] was “(1/8*)”. For the same molecule, the “Toxicity Body weight loss (%)” value ([9]; 2 mg/kg p.o., q4d × 4) was 0%, the “Toxicity Lethality” value ([9]; 2 mg/kg p.o., q4d × 4) was 0/5 and the “Efficacy (TVI %)” value ([9]; 2 mg/kg p.o., q4d × 4) was 100%. The “Toxicity Body weight loss (%)” value ([9]; 5 mg/kg p.o., q10d × 6) was 9%, the “Toxicity Lethality” value ([9]; 5 mg/kg p.o., q10d × 6) was 0/4 and the “Efficacy (TVI %)” value ([9]; 5 mg/kg p.o., q10d × 6) was 99%. The “CR (complete regressions) induced” value ([10]; A2780/DX tumor characterized by a MDR-phenotype) was 100%, the TVI % ([10]; 2 mg/kg) was 92% and the “no evidence of tumor” value ([10]; 2 mg/kg) was “(1/8*)”. The TVI % ([10]; 3 mg/kg) was 100%, the “no evidence of tumor” value ([10]; 3 mg/kg) was “(8/8*)” and the TVI % ([11]; 2 mg/kg) was 77%. The TVI % ([11]; 3 mg/kg) was 90%, the TVI % ([12]; JCA-1, 2 mg/kg) was 98% and the “no evidence of tumor” value ([12]; JCA-1, 2 mg/kg) was “(5/8*)”. The TVI % ([13]; H460, 2 mg/kg) was 99%, the “no evidence of tumor” value ([13]; H460, 2 mg/kg) was “(5/8*)” and the TVI % ([14]; HT29, 2 mg/kg) was 92%. For the same molecule, the TVI % [15] was 95%, the “ILS % = percent increase in life span” value ([16]; L1210, 2 mg/kg) was over 400% and the “cured mice alive 120 d from leukemia injection” value ([16]; L1210, 2 mg/kg) was “*** (>80% of cured mice alive 120 d from leukemia injection.)”. For the same molecule, the TVI % ([17]; 2 mg/kg) was 84% and the TVI % ([17]; 3 mg/kg) was 87%.

With `CC[C@@]1(O)C(=O)OCc2c1cc1n(c2=O)Cc2c-1nc1ccccc1c2C=NOCc1ccccc1` [CPT 172, 7-Benzyloxyiminomethylcamptothecin] the “Reversibility / persistence of the DNA cleavages (in words)” value [4] was “marked persistence”, the “PERSISTENCE (%) of DNA cleavage on selected sites” value [4] was 80% and the TVI % ([5]; GBM/7, 20 mg/kg) was 93%. The “no evidence of tumor” value ([5]; GBM/7, 20 mg/kg) was “(3/11*)”, the TVI % ([5]; GBM/7, 25 mg/kg) was 98% and the “no evidence of tumor” value ([5]; GBM/7, 25 mg/kg) was “(9/12*)”. For the same molecule, the “Toxicity Body weight loss (%)” value ([9]; 2 mg/kg p.o., qd × 5 × 10w) was 0%, the “Toxicity Lethality” value ([9]; 2 mg/kg p.o., qd × 5 × 10w) was 0/3 and the “Efficacy (TVI %)” value ([9]; 2 mg/kg p.o., qd × 5 × 10w) was 90%. For the same molecule, the “Efficacy (TVI %)” value ([9]; 8 mg/kg p.o., q4d × 4) was 77%, the “Efficacy (TVI %)” value ([9]; 16 mg/kg p.o., q4d × 4) was 88% and the “Toxicity Body weight loss (%)” value ([9]; 24 mg/kg p.o., q4d × 4) was 6%. For the same molecule, the “Toxicity Lethality” value ([9]; 24 mg/kg p.o., q4d × 4) was 0/4, the “Efficacy (TVI %)” value ([9]; 24 mg/kg p.o., q4d × 4) was 97% and the TVI % ([12]; JCA-1, 20 mg/kg) was 98%. For the same molecule, the TVI % ([13]; H460, 25 mg/kg) was 97%, the TVI % ([14]; HT29, 25 mg/kg) was 88% and the “ILS % = percent increase in life span” value ([16]; L1210, 25 mg/kg) was over 400%. The TVI % ([17]; 20 mg/kg) was 84% and the TVI % ([17]; 25 mg/kg) was 93%.
